Laboratory results from patent US20110124740A1, “NOVEL DIARYL HEPATONOID-BASED COMPOUNDS AND USE THEREOF” (priority 2008, published 2011).
Read-outs that look alike come from different tables or passages of the source.

Experiments:
[1] = test system: CEF (chicken embryo fibroblasts)
[2] = test system: avian influenza virus KBNP-0028 (KCTC 10866BP); type: cell-based, A/chicken/Korea/SNU0028/2000(H9N2)

## O=C(CCc1ccc(O)c(O)c1)C[C@H](O)CCc1ccc(O)c(O)c1 [12B-AJ-15A, (5R)-1,7-bis(3,4-dihydroxyphenyl)-5-hydroxyheptane-3-one]
[1]
  Cytotoxicity (in words): no cytotoxicity
[1]; 6.25 μg/mL
  Cytotoxicity (MTT assay value): 0.457
[1]; 12.5 μg/mL
  Cytotoxicity (MTT assay value): 0.369
[1]; 25 μg/mL
  Cytotoxicity (MTT assay value): 0.320
[1]; 50 μg/mL
  Cytotoxicity (MTT assay value): 0.369
[1]; 100 μg/mL
  Cytotoxicity (MTT assay value): 0.423
[1]; 200 μg/mL
  Cytotoxicity (MTT assay value): 0.538
[2]
  Antiviral activity (in words): had antiviral activity
[2]; 12.5 μg/mL
  Number of wells wherein hemagglutination occurs (among 6 wells): 3
[2]; 25 μg/mL
  Number of wells wherein hemagglutination occurs (among 6 wells): 3
[2]; 50 μg/mL
  Number of wells wherein hemagglutination occurs (among 6 wells): 3
[2]; 100 μg/mL
  Number of wells wherein hemagglutination occurs (among 6 wells): 3
